Each structure is given as a SMILES string.

Results on nine compounds are retold here after patent US11000033B2, “Ketone or oxime compound, and herbicide” (NISSAN CHEMICAL CORPORATION, priority 2014, dated 2021).

Holding throughout (type): in vivo
Series [1] relates to Galium spurium. In words: Test Example 5: herbicidal effect by foliage application, plastic box (symbol Q). To be noted: 320 g/ha, 3 weeks after application. In a few lines: (§1)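 Seeds were sown in sterilized diluvial soil, covered with about 1.5 cm of soil and grown 14 days in a greenhouse at 25° C. to 30° C. An emulsifiable formulation diluted in water to a set rate was sprayed over foliage, and injury was scored 3 weeks later.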

The test system of series [2] is Amaranthus retroflexus. In words: Test Example 5: herbicidal effect by foliage application, plastic box (symbol N). To be noted: 320 g/ha, 3 weeks after application. In a few lines:
as §1

The test system of series [3] is Abutilon theophrasti. Nature of the series: Test Example 4: herbicidal effect by soil treatment (symbol M). In a few lines:
(§2)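 Seeds were sown in sterilized diluvial soil, covered with about 1.5 cm of soil, and the soil surface was sprayed with a water-diluted emulsion of the compound at a predetermined rate. Plants grew in a greenhouse at 25° C. to 30° C.; effects were scored visually 3 weeks after application.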

Series [4] concerns Scirpus juncoides. Nature of the series: Test Example 1: herbicidal activity, application before weed generation in submerged conditions (symbol B). Conditions: application herbicide amount 320 g/ha. In a few lines:
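Ratings (5: ≥90%, near complete withering; 4: 70–<90%; 3: 40–<70%; 2: 20–<40%; 1: 5–<20%; 0: ≤5%) were assigned 3 weeks after the diluted emulsion was applied to the water surface of freshly sown, submerged pots.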

Series [5] relates to Abutilon theophrasti. Nature of the series: Test Example 5: herbicidal effect by foliage application, plastic box (symbol M). To be noted: 320 g/ha, 3 weeks after application. In a few lines: as §1
Series [6] concerns corn. Nature of the series: Test Example 4: effect on crop by soil treatment (symbol c). To be noted: for c: corn, effect on crop grade: application herbicide amount 320 g/ha; for c: corn, effect grade on crop: 320 g/ha. In a few lines: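 Seeds were sown in spots on sterilized diluvial soil in a plastic box and covered with about 1.5 cm of soil. Plants were then grown in a greenhouse at 25° C. to 30° C.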

Series [7] has as its system Alopecurus myosuroides. In words: Test Example 4: herbicidal effect by soil treatment (symbol J). In outline:
as §2

For series [8], the system named is Digitaria ciliaris. Nature of the series: Test Example 5: herbicidal effect by foliage application, plastic box (symbol F). To be noted: 320 g/ha, 3 weeks after application. In a few lines: as §1
Series [9] deals with Cyperus difformis. Nature of the series: Test Example 3: herbicidal effect by foliage application, Wagner pot (symbol E). To be noted: application herbicide amount 320 g/ha. In outline: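 Steps: fill pot with alluvial soil; add water to 0.1–0.5 cm depth; sow weed and rice seed; grow 14 days at 25–30 °C; spray diluted emulsion over the leaves; rate effect after 3 weeks.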
Where [10] appears, read: application herbicide amount 320 g/ha.

For `CCOC(=O)C(C(=O)Cc1ccccc1)C1CC(O)=C(c2c(C)cc(C)cc2C)C1=O` (stereo not drawn) [2-011], the “Q: Galium spurium, herbicidal effect grade” value in [1] is given as 0 (Herbicidal ratio of 5% or lower (almost no effect)). For the same compound, the “N: Amaranthus retroflexus, herbicidal effect grade” value in series [2] is given as 0 (Herbicidal ratio of 5% or lower (almost no effect)). The “M: Abutilon theophrasti, herbicidal effect grade” value in series [3] (setting [10]) and in series [5] was 0 (Herbicidal ratio of 5% or lower (almost no effect)) throughout. Further, the “Herbicidal effect grade, B: Scirpus juncoides” value (“Herbicidal effect grade, B” below) in series [4] was 0 (Herbicidal ratio of 5% or lower (almost no effect)). Also, the “c: corn, effect on crop grade” value in series [6] is 0 (Herbicidal ratio of 5% or lower (almost no effect)). In series [7] (setting [10]), the “J: Alopecurus myosuroides, herbicidal effect grade” value (“J: Alopecurus myosuroides” below) is 0 (Herbicidal ratio of 5% or lower (almost no effect)). For the same compound, the “F: Digitaria ciliaris, herbicidal effect grade” value in series [8] was 0 (Herbicidal ratio of 5% or lower (almost no effect)). For the same compound, the “herbicidal effect on E, grade 0-5” value in [9] was 0 (Herbicidal ratio of 5% or lower (almost no effect)).
In the case of `Cc1cc(C)c(C2=C(O)CC(CC(=O)c3ccc(F)cc3)C2=O)c(C)c1` (stereo not drawn) [2-032], the “Q: Galium spurium, herbicidal effect grade” value in [1] is 0 (Herbicidal ratio of 5% or lower (almost no effect)). Besides, the “N: Amaranthus retroflexus, herbicidal effect grade” value in series [2] is listed as 0 (Herbicidal ratio of 5% or lower (almost no effect)). For the same compound, the “M: Abutilon theophrasti, herbicidal effect grade” value in series [3] (setting [10]) and in series [5] was 0 (Herbicidal ratio of 5% or lower (almost no effect)) throughout. Besides, the “Herbicidal effect grade, B” value in series [4] was 4 (Herbicidal ratio of 70% or higher and lower than 90%). Also, the “c: corn, effect on crop grade” value in [6] is 1 (Herbicidal ratio of 5% or higher and lower than 20%). Moreover, the “J: Alopecurus myosuroides” value in [7] (setting [10]) is reported as 5 (Herbicidal ratio of 90% or more (almost completely withered)). Further, the “F: Digitaria ciliaris, herbicidal effect grade” value in [8] is 2 (Herbicidal ratio of 20% or higher and lower than 40%). Also, the “herbicidal effect on E, grade 0-5” value in [9] is 4 (Herbicidal ratio of 70% or higher and lower than 90%).
`CCOC(=O)C(C(=O)c1ccccn1)C1CC(O)=C(c2c(C)cc(C)cc2C)C1=O` (stereo not drawn) [2-013]: the “Q: Galium spurium, herbicidal effect grade” value in [1] was 1 (Herbicidal ratio of 5% or higher and lower than 20%). In series [2], the “N: Amaranthus retroflexus, herbicidal effect grade” value is given as 0 (Herbicidal ratio of 5% or lower (almost no effect)). Moreover, the “M: Abutilon theophrasti, herbicidal effect grade” value in [3] (setting [10]) and in [5] was 0 (Herbicidal ratio of 5% or lower (almost no effect)) each time. The “Herbicidal effect grade, B” value in series [4] is given as 0 (Herbicidal ratio of 5% or lower (almost no effect)). For the same compound, in series [6], the “c: corn, effect on crop grade” value is reported as 0 (Herbicidal ratio of 5% or lower (almost no effect)). Further, the “J: Alopecurus myosuroides” value in series [7] (setting [10]) was 0 (Herbicidal ratio of 5% or lower (almost no effect)). For the same compound, the “F: Digitaria ciliaris, herbicidal effect grade” value in series [8] is 4 (Herbicidal ratio of 70% or higher and lower than 90%). For the same compound, the “herbicidal effect on E, grade 0-5” value in series [9] was 0 (Herbicidal ratio of 5% or lower (almost no effect)).
As to `C=CCN(CC=C)C(=O)OC1=C(c2c(C)cc(C)cc2C)C(=O)C(CC(C)=NOC)C1` (stereo not drawn) [1-153], the “Q: Galium spurium, herbicidal effect (criteria 0-5)” value (shortened to “Q: Galium spurium … (criteria 0-5)”) in series [1] is 3 (Herbicidal ratio of 40% or higher and lower than 70%). The “N: Amaranthus retroflexus, herbicidal effect (criteria 0-5)” value in series [2] is 4 (Herbicidal ratio of 70% or higher and lower than 90%). Further, the “M: Abutilon theophrasti, herbicidal effect grade” value in series [3] (320 g/ha) is 0 (Herbicidal ratio of 5% or lower (almost no effect)). Also, in [4], the “Herbicidal effect grade, B” value is 3 (Herbicidal ratio of 40% or higher and lower than 70%). Also, the “M: Abutilon theophrasti, herbicidal effect (criteria 0-5)” value in series [5] is 4 (Herbicidal ratio of 70% or higher and lower than 90%). Also, in [6], the “c: corn, effect grade on crop” value is 0 (Herbicidal ratio of 5% or lower (almost no effect)). Further, the “J: Alopecurus myosuroides” value in series [7] (320 g/ha) was 3 (Herbicidal ratio of 40% or higher and lower than 70%). For the same compound, the “F: Digitaria ciliaris, herbicidal effect (criteria 0-5)” value (“F: Digitaria ciliaris … (criteria 0-5)” below) in series [8] is 5 (Herbicidal ratio of 90% or more (almost completely withered)). Further, in [9], the “herbicidal effect on E, grade 0-5” value was 4 (Herbicidal ratio of 70% or higher and lower than 90%).
In the case of `CCC(CCC1CC(O)=C(c2c(C)cc(C)cc2C)C1=O)=NOC` (mixture of isomers) [4-001], the “Q: Galium spurium, herbicidal effect grade” value in series [1] was 0 (Herbicidal ratio of 5% or lower (almost no effect)). The “N: Amaranthus retroflexus, herbicidal effect grade” value in [2] is on record as 0 (Herbicidal ratio of 5% or lower (almost no effect)). Besides, the “M: Abutilon theophrasti, herbicidal effect grade” value in series [3] (setting [10]) and in [5] was 0 (Herbicidal ratio of 5% or lower (almost no effect)) each time. In addition, in [4], the “Herbicidal effect grade, B” value was 0 (Herbicidal ratio of 5% or lower (almost no effect)). For the same compound, in [6], the “c: corn, effect on crop grade” value is 0 (Herbicidal ratio of 5% or lower (almost no effect)). In addition, the “J: Alopecurus myosuroides” value in series [7] (setting [10]) is 3 (Herbicidal ratio of 40% or higher and lower than 70%). The “F: Digitaria ciliaris, herbicidal effect grade” value in series [8] is 3 (Herbicidal ratio of 40% or higher and lower than 70%). For the same compound, in series [9], the “herbicidal effect on E, grade 0-5” value was 0 (Herbicidal ratio of 5% or lower (almost no effect)).
For the compound `CON=C(C)CC1CC(O)=C(c2c(C)cc(C#CC3CC3)cc2C)C1=O` (mixture of isomers) [6-010], the “Q: Galium spurium, herbicidal effect grade” value in series [1] is 0 (Herbicidal ratio of 5% or lower (almost no effect)). In series [2], the “N: Amaranthus retroflexus, herbicidal effect grade” value was 0 (Herbicidal ratio of 5% or lower (almost no effect)). The “M: Abutilon theophrasti, herbicidal effect grade” value in series [3] (setting [10]) is 3 (Herbicidal ratio of 40% or higher and lower than 70%); in [5], 0 (Herbicidal ratio of 5% or lower (almost no effect)). The “Herbicidal effect grade, B” value in series [4] is 4 (Herbicidal ratio of 70% or higher and lower than 90%). Besides, in [6], the “c: corn, effect on crop grade” value was 4 (Herbicidal ratio of 70% or higher and lower than 90%). In series [7] (setting [10]), the “J: Alopecurus myosuroides” value was 5 (Herbicidal ratio of 90% or more (almost completely withered)). Also, the “F: Digitaria ciliaris, herbicidal effect grade” value in series [8] is reported as 5 (Herbicidal ratio of 90% or more (almost completely withered)). For the same compound, the “herbicidal effect on E, grade 0-5” value in series [9] is given as 5 (Herbicidal ratio of 90% or more (almost completely withered)).
In the case of `CON=C(C)CC1CC(OC(=O)N2CCCCC2)=C(c2c(C)cc(C)cc2C)C1=O` (stereo not drawn) [1-151], the “Q: Galium spurium … (criteria 0-5)” value in [1] is on record as 0 (Herbicidal ratio of 5% or lower (almost no effect)). For the same compound, the “N: Amaranthus retroflexus, herbicidal effect (criteria 0-5)” value in series [2] was 0 (Herbicidal ratio of 5% or lower (almost no effect)). Further, the “M: Abutilon theophrasti, herbicidal effect grade” value in series [3] (320 g/ha) is on record as 0 (Herbicidal ratio of 5% or lower (almost no effect)). For the same compound, the “Herbicidal effect grade, B” value in series [4] is 3 (Herbicidal ratio of 40% or higher and lower than 70%). In addition, in series [5], the “M: Abutilon theophrasti, herbicidal effect (criteria 0-5)” value was 3 (Herbicidal ratio of 40% or higher and lower than 70%). Further, the “c: corn, effect grade on crop” value in [6] is given as 0 (Herbicidal ratio of 5% or lower (almost no effect)). In series [7] (320 g/ha), the “J: Alopecurus myosuroides” value is reported as 5 (Herbicidal ratio of 90% or more (almost completely withered)). In [8], the “F: Digitaria ciliaris … (criteria 0-5)” value is reported as 5 (Herbicidal ratio of 90% or more (almost completely withered)).
Take `CON=C(C)CC1CC(OC(=O)OCc2ccccc2)=C(c2c(C)cc(C)cc2C)C1=O` (stereo not drawn) [1-145]: the “Q: Galium spurium … (criteria 0-5)” value in series [1] was 2 (Herbicidal ratio of 20% or higher and lower than 40%). Also, in series [2], the “N: Amaranthus retroflexus, herbicidal effect (criteria 0-5)” value was 0 (Herbicidal ratio of 5% or lower (almost no effect)). Further, in series [3] (320 g/ha), the “M: Abutilon theophrasti, herbicidal effect grade” value is 4 (Herbicidal ratio of 70% or higher and lower than 90%). Also, in [4], the “Herbicidal effect grade, B” value is recorded as 5 (Herbicidal ratio of 90% or more (almost completely withered)). Further, the “M: Abutilon theophrasti, herbicidal effect (criteria 0-5)” value in series [5] is 3 (Herbicidal ratio of 40% or higher and lower than 70%). The “c: corn, effect grade on crop” value in series [6] was 5 (Herbicidal ratio of 90% or more (almost completely withered)). For the same compound, in series [7] (320 g/ha), the “J: Alopecurus myosuroides” value is recorded as 5 (Herbicidal ratio of 90% or more (almost completely withered)). In series [8], the “F: Digitaria ciliaris … (criteria 0-5)” value is listed as 5 (Herbicidal ratio of 90% or more (almost completely withered)).
As to `C=CCOC(=O)OC1=C(c2c(C)cc(C)cc2C)C(=O)C(CC(C)=NOC)C1` (stereo not drawn) [1-146], the “Q: Galium spurium … (criteria 0-5)” value in series [1] is 3 (Herbicidal ratio of 40% or higher and lower than 70%). The “N: Amaranthus retroflexus, herbicidal effect (criteria 0-5)” value in series [2] is given as 0 (Herbicidal ratio of 5% or lower (almost no effect)). In addition, the “M: Abutilon theophrasti, herbicidal effect grade” value in [3] (320 g/ha) is 5 (Herbicidal ratio of 90% or more (almost completely withered)). Further, the “Herbicidal effect grade, B” value in series [4] is listed as 5 (Herbicidal ratio of 90% or more (almost completely withered)). Further, in [5], the “M: Abutilon theophrasti, herbicidal effect (criteria 0-5)” value is listed as 5 (Herbicidal ratio of 90% or more (almost completely withered)). In addition, the “c: corn, effect grade on crop” value in [6] is 1 (Herbicidal ratio of 5% or higher and lower than 20%). In addition, in [7] (320 g/ha), the “J: Alopecurus myosuroides” value is on record as 5 (Herbicidal ratio of 90% or more (almost completely withered)). Moreover, in series [8], the “F: Digitaria ciliaris … (criteria 0-5)” value is 5 (Herbicidal ratio of 90% or more (almost completely withered)).
